The values that follow come from PMC7180948, “New Insights into 4-Anilinoquinazolines as Inhibitors of Cardiac Troponin I–Interacting Kinase (TNNi3K)” (Molecules, 2020).

One may read the inhibition as the relative decrease from the control value, in per cent.

Common to all, as to assay: biochemical
Holding throughout (set-up): KINOMEscan competition binding panel (Eurofins DiscoverX), single concentration, percent inhibition
Holding throughout (conditions): read-out: 15 at 1 µM % inhibition

One assay has as its target LRRK2(G2019S) (Homo sapiens, UniProt Q5S007, G2019S). The essentials: (§1)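 KINOMEscan selectivity screen; >400 human kinases; compound at 1 µM, single concentration.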
In the next assay the target is ALK(L1196M) (Homo sapiens, UniProt Q9UM73, L1196M). The essentials:
as §1

A further assay addresses T1, DRAK1 (Homo sapiens, UniProt Q9UEE5).
T1 construct: gene STK17A
The essentials:
as §1

The target of another assay is KIT(D816V) (Homo sapiens, UniProt P10721, D816V). The essentials: as §1
The target of another assay is PIK3CA(M1043I) (Homo sapiens, UniProt P42336, M1043I). The essentials:
as §1

A further assay concerns the target LTK (Homo sapiens, UniProt P29376). The essentials: as §1
In another assay the target is GSK3B (Homo sapiens, UniProt P49841). The essentials:
as §1

Another assay addresses CIT (Homo sapiens, UniProt O14578). The essentials:
as §1

In the next assay the target is FYN (Homo sapiens, UniProt P06241). The essentials:
as §1

The target of the next assay is CSNK2A1 (Homo sapiens, UniProt P68400). The essentials:
as §1

The next assay deals with RET(V804M) (Homo sapiens, UniProt P07949, V804M). The essentials: as §1
The target in a further assay is CAMK2A (Homo sapiens, UniProt Q9UQM7). The essentials:
as §1

The target in another assay is EPHB1 (Homo sapiens, UniProt P54762). The essentials:
as §1

The target in the next assay is T2, MLK3 (Homo sapiens, UniProt Q16584).
T2 construct: gene MAP3K11
The essentials:
as §1

The target of a further assay is CAMK2B (Homo sapiens, UniProt Q13554). The essentials:
as §1

For a further assay, the target named is NEK7 (Homo sapiens, UniProt Q8TDX7). The essentials: as §1
Another assay has as its target T3, QSK (Homo sapiens, UniProt Q9Y2K2).
T3 construct: gene SIK3
The essentials: as §1

A further assay has as its target TSSK3 (Homo sapiens, UniProt Q96PN8). The essentials:
as §1

A further assay deals with PDPK1 (Homo sapiens, UniProt O15530). The essentials:
as §1

The target of a further assay is T4, PYK2 (Homo sapiens, UniProt Q14289).
T4 construct: gene PTK2B
The essentials:
as §1

The target in another assay is PIK3CD (Homo sapiens, UniProt O00329). The essentials: as §1
Another assay addresses FGFR3(G697C) (Homo sapiens, UniProt P22607, G697C). The essentials: as §1
The target of the next assay is T5, CAMK1B (Homo sapiens, UniProt Q6P2M8).
T5 construct: gene PNCK
The essentials:
as §1

In another assay the target is AKT3 (Homo sapiens, UniProt Q9Y243). The essentials: as §1

Chain of ALK(L1196M) (Q9UM73 whole entry L1196M): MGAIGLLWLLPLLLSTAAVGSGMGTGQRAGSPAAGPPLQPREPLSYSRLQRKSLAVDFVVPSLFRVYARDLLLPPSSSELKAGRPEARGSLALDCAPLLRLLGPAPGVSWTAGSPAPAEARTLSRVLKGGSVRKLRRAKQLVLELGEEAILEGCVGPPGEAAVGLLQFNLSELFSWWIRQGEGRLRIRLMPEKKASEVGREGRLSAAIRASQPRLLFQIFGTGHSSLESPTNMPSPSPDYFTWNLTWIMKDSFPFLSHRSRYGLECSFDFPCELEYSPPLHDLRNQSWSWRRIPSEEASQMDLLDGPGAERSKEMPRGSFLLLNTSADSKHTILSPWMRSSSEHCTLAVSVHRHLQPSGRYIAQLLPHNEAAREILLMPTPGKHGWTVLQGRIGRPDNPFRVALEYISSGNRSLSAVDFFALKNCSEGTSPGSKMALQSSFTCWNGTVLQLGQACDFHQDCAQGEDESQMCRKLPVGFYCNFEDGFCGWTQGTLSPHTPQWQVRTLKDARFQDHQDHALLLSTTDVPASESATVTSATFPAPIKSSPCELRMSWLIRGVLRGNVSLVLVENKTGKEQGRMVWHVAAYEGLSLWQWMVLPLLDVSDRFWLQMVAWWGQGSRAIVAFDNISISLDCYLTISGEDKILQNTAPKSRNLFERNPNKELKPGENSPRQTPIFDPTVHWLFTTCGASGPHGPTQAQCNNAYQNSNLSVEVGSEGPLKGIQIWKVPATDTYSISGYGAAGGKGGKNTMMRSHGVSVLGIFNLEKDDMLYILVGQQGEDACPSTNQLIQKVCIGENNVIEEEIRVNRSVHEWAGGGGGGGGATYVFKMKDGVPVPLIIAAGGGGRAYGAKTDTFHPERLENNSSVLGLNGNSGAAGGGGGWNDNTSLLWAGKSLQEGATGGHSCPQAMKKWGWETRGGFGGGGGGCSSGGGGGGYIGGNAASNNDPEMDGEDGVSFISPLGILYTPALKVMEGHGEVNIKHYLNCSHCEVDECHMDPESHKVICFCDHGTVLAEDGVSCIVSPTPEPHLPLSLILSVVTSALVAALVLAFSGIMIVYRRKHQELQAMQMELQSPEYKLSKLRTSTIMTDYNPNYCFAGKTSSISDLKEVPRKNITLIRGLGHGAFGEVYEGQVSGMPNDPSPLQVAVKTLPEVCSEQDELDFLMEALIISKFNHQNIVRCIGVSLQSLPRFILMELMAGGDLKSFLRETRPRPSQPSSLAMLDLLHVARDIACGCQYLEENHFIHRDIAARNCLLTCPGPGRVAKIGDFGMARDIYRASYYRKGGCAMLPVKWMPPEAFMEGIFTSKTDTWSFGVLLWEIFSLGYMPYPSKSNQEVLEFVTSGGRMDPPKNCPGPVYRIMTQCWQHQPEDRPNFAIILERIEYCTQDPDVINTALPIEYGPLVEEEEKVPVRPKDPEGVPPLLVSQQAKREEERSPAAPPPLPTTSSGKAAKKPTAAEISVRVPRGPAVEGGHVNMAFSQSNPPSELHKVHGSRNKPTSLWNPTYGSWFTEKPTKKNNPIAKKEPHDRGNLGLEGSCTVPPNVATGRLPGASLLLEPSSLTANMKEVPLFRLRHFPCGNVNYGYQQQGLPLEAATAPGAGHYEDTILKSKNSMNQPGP
Chain of PIK3CA(M1043I) (P42336 whole entry M1043I): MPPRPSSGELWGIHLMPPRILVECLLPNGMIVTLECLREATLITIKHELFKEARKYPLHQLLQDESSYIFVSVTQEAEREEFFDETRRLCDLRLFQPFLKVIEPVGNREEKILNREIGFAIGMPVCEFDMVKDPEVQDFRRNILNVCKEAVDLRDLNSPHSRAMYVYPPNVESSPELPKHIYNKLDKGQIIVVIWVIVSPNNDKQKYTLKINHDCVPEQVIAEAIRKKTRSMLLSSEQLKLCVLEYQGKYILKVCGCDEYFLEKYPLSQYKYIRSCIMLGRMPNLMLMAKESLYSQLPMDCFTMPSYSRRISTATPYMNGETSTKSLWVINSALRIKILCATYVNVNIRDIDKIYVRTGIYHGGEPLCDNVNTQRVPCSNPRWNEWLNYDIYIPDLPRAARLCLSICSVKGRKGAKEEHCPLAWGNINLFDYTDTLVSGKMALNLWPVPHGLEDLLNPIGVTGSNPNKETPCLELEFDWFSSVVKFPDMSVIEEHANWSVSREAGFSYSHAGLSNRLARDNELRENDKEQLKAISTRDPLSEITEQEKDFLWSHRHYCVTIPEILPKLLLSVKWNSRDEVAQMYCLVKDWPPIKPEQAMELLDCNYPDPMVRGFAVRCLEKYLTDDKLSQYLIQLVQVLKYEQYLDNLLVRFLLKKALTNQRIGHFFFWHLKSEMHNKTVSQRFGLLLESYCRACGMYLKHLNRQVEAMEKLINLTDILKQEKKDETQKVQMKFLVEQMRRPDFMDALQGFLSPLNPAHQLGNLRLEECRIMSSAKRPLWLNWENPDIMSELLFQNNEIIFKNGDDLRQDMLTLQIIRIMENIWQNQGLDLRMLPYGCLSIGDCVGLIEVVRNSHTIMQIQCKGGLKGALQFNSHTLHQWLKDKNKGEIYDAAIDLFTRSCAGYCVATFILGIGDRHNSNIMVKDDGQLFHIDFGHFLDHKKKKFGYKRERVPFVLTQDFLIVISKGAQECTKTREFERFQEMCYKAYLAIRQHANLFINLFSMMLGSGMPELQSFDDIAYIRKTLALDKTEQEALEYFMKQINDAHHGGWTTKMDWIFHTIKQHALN
Chain of CIT (O14578 whole entry): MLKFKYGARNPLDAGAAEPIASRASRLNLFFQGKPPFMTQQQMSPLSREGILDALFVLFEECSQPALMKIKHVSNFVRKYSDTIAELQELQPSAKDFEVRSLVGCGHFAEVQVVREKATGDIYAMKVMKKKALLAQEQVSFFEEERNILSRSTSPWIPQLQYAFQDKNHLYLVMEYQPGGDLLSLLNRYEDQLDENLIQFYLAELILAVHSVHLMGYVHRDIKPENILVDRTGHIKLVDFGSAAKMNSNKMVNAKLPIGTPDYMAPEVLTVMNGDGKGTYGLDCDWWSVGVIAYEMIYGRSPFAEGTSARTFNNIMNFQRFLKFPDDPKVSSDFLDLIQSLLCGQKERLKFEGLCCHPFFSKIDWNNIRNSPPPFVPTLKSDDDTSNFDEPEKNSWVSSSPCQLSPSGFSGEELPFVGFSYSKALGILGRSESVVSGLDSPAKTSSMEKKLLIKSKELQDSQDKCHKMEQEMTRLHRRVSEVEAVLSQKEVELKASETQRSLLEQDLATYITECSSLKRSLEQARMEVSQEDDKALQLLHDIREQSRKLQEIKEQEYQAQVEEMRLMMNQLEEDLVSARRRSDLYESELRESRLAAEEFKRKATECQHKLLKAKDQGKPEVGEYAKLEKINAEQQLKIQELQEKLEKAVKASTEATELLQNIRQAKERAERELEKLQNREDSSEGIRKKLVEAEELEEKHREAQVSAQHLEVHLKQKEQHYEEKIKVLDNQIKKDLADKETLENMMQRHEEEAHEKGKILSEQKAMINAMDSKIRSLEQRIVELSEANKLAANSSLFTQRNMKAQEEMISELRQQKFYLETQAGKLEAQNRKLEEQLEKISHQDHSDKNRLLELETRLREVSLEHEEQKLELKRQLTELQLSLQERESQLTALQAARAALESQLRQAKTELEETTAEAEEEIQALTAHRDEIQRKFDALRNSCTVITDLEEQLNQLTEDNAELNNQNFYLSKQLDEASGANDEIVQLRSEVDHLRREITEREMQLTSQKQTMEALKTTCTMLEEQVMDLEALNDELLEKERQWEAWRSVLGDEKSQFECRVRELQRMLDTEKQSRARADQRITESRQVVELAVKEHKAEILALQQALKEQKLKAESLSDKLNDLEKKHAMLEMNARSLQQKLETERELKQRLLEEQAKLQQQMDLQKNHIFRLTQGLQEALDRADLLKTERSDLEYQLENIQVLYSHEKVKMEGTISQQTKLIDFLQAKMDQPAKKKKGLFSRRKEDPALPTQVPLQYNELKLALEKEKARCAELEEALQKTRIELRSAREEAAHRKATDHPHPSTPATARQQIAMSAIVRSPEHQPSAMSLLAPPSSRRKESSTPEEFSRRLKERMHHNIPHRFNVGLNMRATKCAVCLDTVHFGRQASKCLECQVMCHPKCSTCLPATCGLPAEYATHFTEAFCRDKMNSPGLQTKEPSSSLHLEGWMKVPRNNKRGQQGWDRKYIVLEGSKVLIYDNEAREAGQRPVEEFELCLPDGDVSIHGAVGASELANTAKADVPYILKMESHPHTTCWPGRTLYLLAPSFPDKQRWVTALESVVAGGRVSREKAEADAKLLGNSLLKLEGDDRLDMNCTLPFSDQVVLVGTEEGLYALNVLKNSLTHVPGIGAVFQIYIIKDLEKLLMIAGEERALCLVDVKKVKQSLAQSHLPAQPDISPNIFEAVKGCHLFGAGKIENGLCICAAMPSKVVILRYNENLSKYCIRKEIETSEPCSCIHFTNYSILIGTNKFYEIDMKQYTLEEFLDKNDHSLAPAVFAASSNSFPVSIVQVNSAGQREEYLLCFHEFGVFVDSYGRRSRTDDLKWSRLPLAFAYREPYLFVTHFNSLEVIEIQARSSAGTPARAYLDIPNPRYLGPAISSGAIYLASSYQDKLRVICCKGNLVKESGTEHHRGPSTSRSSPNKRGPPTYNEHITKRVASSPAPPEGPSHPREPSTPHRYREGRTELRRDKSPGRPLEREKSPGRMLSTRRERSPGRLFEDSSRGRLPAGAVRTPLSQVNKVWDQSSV
Chain of CSNK2A1 (P68400 whole entry): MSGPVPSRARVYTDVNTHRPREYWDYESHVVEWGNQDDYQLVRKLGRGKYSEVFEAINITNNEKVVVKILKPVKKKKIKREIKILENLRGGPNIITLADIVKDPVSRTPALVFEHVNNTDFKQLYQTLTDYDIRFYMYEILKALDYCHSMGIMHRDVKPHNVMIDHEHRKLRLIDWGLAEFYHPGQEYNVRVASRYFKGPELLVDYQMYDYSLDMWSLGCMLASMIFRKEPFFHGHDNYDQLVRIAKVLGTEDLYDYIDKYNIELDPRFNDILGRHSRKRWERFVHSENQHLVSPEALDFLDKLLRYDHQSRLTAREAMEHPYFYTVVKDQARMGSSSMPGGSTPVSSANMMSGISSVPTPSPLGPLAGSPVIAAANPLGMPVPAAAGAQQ

In the case of `CNS(=O)(=O)c1ccc(N(C)C)c(Nc2nc(C)nc3cc(OC)c(OC)cc23)c1` [compound 15, 3-((6,7-dimethoxy-2-methylquinazolin-4-yl)amino)-4-(dimethylamino)-N-methylbenzenesulfonamide], the inhibition at 1 µM on LRRK2(G2019S) was 8%; on ALK(L1196M), 12%; at DRAK1, 0%; on KIT(D816V), 4%; at PIK3CA(M1043I) it was 0%; on LTK, 12%. Also, the inhibition at 1 µM on GSK3B is 17%; on CIT, 4%; at FYN, 0%; at CSNK2A1 it was 18%; at RET(V804M), 0%; at CAMK2A it was 4%. For the same compound, the inhibition at 1 µM on EPHB1 amounted to 0%; on MLK3, 0%; on CAMK2B, 0%; at NEK7, 2%; on QSK, 22%; at TSSK3, 28%. Moreover, the inhibition at 1 µM came to 0% at PDPK1; 0% on PYK2; 37% at PIK3CD; 0% at FGFR3(G697C); 28% at CAMK1B; 4% at AKT3.
